*1 amine or outer side, *2 acyl side, *3 side chain or, on linkers, in order; H or OH if unused. Where a SMILES comes first, the peptide text is derived from it. Side-chain parts run from the residue outwards. [ ]: non-standard residue; d: D form. The star is where a group is joined. γGlu = O=C(O)[C@H](CCC(=O)[*:2])N[*:1]; Palmitoyl = CCCCCCCCCCCCCCCC(=O)*; Nva = CCC[C@H](N)C(=O)O; Aib = CC(C)(N)C(=O)O
Experiments:
Assay type in all cases: cell-based
[1] = target: T1, GLP-1 receptor (Homo sapiens, UniProt P43220); test: cAMP induction, firefly luciferase-based reporter assay in HEK293 cells co-transfected with GLP-1 receptor; details: EC50 at GLP-1 Receptor
T1 construct: expressed in transfected cells; host or cells: HEK293
Excerpt: (§1) This example describes an exemplary method of testing the biological activity of the peptides of the present disclosures, which method involves assaying cAMP synthesis.

[2] = target: T2, glucagon receptor (Homo sapiens, UniProt P47871); test: cAMP induction, firefly luciferase-based reporter assay in HEK293 cells co-transfected with glucagon receptor; details: for EC50: EC50 at Glucagon Receptor
T2 construct: expressed in transfected cells; host or cells: HEK293
Excerpt: as §1

[3] = target: T3, GIP receptor (Homo sapiens, UniProt P48546); test: cAMP induction, firefly luciferase-based reporter assay in HEK293 cells co-transfected with GIP receptor; details: EC50 at GIP Receptor
T3 construct: expressed in transfected cells; host or cells: HEK293
T3 sequence (P48546 22-466): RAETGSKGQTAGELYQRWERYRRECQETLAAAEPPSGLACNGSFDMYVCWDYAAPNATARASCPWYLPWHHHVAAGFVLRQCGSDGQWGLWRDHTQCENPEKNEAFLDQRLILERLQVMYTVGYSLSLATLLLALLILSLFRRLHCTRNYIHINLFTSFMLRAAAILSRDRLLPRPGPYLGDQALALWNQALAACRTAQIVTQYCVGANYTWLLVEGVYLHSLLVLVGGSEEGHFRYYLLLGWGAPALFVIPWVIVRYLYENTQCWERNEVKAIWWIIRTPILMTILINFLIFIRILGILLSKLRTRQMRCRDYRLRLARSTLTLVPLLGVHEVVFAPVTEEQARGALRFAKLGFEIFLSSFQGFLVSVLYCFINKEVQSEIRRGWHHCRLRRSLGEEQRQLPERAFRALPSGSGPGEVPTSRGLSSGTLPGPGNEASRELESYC
Excerpt: as §1

[4] = Table 4, analogs of SEQ ID NO: 43 varying at position 3
[5] = Table 2, analogs of SEQ ID NO: 18 varying at positions 16-21
[6] = Table 3, analogs of SEQ ID NO: 18 varying at position 3
[7] = Table 5, analogs of SEQ ID NO: 10

T1 sequence (P43220 24-463): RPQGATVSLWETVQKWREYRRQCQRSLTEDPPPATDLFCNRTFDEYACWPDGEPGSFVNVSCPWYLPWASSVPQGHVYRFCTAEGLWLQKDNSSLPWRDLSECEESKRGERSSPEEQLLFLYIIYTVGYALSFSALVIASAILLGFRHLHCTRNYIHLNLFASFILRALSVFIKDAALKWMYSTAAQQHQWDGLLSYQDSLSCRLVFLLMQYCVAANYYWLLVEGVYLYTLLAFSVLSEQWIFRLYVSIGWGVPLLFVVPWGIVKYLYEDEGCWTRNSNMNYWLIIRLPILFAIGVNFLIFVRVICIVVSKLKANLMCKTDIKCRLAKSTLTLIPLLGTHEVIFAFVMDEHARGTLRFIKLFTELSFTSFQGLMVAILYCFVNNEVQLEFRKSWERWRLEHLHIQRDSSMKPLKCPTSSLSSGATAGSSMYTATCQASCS
T2 sequence (P47871 26-477): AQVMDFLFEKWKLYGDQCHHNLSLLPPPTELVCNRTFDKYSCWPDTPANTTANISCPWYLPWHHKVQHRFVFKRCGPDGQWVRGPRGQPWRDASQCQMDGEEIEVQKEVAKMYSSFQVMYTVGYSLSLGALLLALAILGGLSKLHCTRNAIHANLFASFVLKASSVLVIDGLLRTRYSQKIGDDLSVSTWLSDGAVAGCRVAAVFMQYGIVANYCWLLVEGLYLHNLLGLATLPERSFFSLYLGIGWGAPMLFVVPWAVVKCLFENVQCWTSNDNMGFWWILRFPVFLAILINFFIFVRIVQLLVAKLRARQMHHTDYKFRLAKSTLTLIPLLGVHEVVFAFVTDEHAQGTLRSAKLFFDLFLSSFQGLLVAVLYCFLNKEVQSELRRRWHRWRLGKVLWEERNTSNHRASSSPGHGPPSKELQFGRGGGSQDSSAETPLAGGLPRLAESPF

SMILES	EC50 [1, 5] [pM]	EC50 [2, 5] [pM]	EC50 [3, 5] [pM]	EC50 [3, 6] [pM]	further results
CCCCCCCCCCCCCCCC(=O)N[C@@H](CCC(=O)NCCCC[C@H](NC(=O)[C@H](CC(=O)O)NC(=O)[C@H](CO)NC(=O)[C@@H](NC(=O)[C@H](Cc1ccccc1)NC(=O)[C@@H](NC(=O)CNC(=O)[C@H](CCC)NC(=O)C(C)(C)NC(=O)[C@@H](N)Cc1c[nH]cn1)[C@@H](C)O)[C@@H](C)O)C(=O)N[C@@H](CO)C(=O)N[C@@H](CCCCN)C(=O)N[C@@H](Cc1ccc(O)cc1)C(=O)N[C@@H](CC(C)C)C(=O)N[C@@H](CC(=O)O)C(=O)N[C@@H](CCC(=O)O)C(=O)N[C@@H](CCCNC(=N)N)C(=O)N[C@@H](C)C(=O)N[C@@H](C)C(=O)N[C@@H](CCC(N)=O)C(=O)N[C@@H](CC(=O)O)C(=O)N[C@@H](Cc1ccccc1)C(=O)N[C@H](C(=O)N[C@@H](CCC(N)=O)C(=O)N[C@@H](Cc1c[nH]c2ccccc12)C(=O)N[C@@H](CC(C)C)C(=O)N[C@@H](CC(C)C)C(=O)N[C@@H](CCC(=O)O)C(=O)NCC(=O)NCC(=O)N1CCC[C@H]1C(=O)N[C@@H](CO)C(=O)N[C@@H](CO)C(=O)NCC(=O)N[C@@H](C)C(=O)N1CCC[C@H]1C(=O)N1CCC[C@H]1C(=O)N1CCC[C@H]1C(=O)N[C@@H](CO)C(N)=O)C(C)C)C(=O)O [compound 47] (H-H[Aib][Nva]GTFTSDK([γGlu-Palmitoyl])SKYLDERAAQDFVQWLLEGGPSSGAPPPS-NH2)					EC50 [1, 4]: 3 pM; EC50 [2, 4]: 25 pM; EC50 [3, 4]: 2 pM
CCCCCCCCCCCCCCCC(=O)N[C@@H](CCC(=O)NCCCC[C@H](NC(=O)[C@H](CC(=O)O)NC(=O)[C@H](CO)NC(=O)[C@@H](NC(=O)[C@H](Cc1ccccc1)NC(=O)[C@@H](NC(=O)CNC(=O)[C@H](CCC(N)=O)NC(=O)C(C)(C)NC(=O)[C@@H](N)Cc1c[nH]cn1)[C@@H](C)O)[C@@H](C)O)C(=O)N[C@@H](CO)C(=O)N[C@@H](CCCCN)C(=O)N[C@@H](Cc1ccc(O)cc1)C(=O)N[C@@H](CC(C)C)C(=O)N[C@@H](CC(=O)O)C(=O)N[C@@H](CCC(=O)O)C(=O)N[C@@H](CCCNC(=N)N)C(=O)N[C@@H](C)C(=O)N[C@@H](C)C(=O)N[C@@H](Cc1c[nH]cn1)C(=O)N[C@@H](CC(=O)O)C(=O)N[C@@H](Cc1ccccc1)C(=O)N[C@H](C(=O)N[C@@H](CCC(N)=O)C(=O)N[C@@H](Cc1c[nH]c2ccccc12)C(=O)N[C@@H](CC(C)C)C(=O)N[C@@H](CC(C)C)C(=O)N[C@@H](CC(=O)O)C(=O)NCC(=O)NCC(=O)N1CCC[C@H]1C(=O)N[C@@H](CO)C(=O)N[C@@H](CO)C(=O)NCC(=O)N[C@@H](C)C(=O)N1CCC[C@H]1C(=O)N1CCC[C@H]1C(=O)N1CCC[C@H]1C(=O)N[C@@H](CO)C(N)=O)C(C)C)C(=O)O [compound 19] (H-H[Aib]QGTFTSDK([γGlu-Palmitoyl])SKYLDERAAHDFVQWLLDGGPSSGAPPPS-NH2)	18	12	15		
CCCCCCCCCCCCCCCC(=O)N[C@@H](CCC(=O)NCCCC[C@H](NC(=O)[C@H](CC(=O)O)NC(=O)[C@H](CO)NC(=O)[C@@H](NC(=O)[C@H](Cc1ccccc1)NC(=O)[C@@H](NC(=O)CNC(=O)[C@@H](NC(=O)C(C)(C)NC(=O)[C@@H](N)Cc1c[nH]cn1)[C@@H](C)CC)[C@@H](C)O)[C@@H](C)O)C(=O)N[C@@H](CO)C(=O)N[C@@H](CCCCN)C(=O)N[C@@H](Cc1ccc(O)cc1)C(=O)N[C@@H](CC(C)C)C(=O)N[C@@H](CCC(=O)O)C(=O)N[C@@H](CCC(=O)O)C(=O)N[C@@H](CCCNC(=N)N)C(=O)N[C@@H](C)C(=O)N[C@@H](C)C(=O)N[C@@H](CCC(N)=O)C(=O)N[C@@H](CCC(=O)O)C(=O)N[C@@H](Cc1ccccc1)C(=O)N[C@H](C(=O)N[C@@H](CCC(N)=O)C(=O)N[C@@H](Cc1c[nH]c2ccccc12)C(=O)N[C@@H](CC(C)C)C(=O)N[C@@H](CC(C)C)C(=O)N[C@@H](CCC(=O)O)C(=O)NCC(=O)NCC(=O)N1CCC[C@H]1C(=O)N[C@@H](CO)C(=O)N[C@@H](CO)C(=O)NCC(=O)N[C@@H](C)C(=O)N1CCC[C@H]1C(=O)N1CCC[C@H]1C(=O)N1CCC[C@H]1C(=O)N[C@@H](CO)C(N)=O)C(C)C)C(=O)O [compound 30] (H-H[Aib]IGTFTSDK([γGlu-Palmitoyl])SKYLEERAAQEFVQWLLEGGPSSGAPPPS-NH2)				423	EC50 [1, 6]: 250 pM; EC50 at Glucagon Receptor [2, 6]: Not active
CCCCCCCCCCCCCCCC(=O)N[C@@H](CCC(=O)NCCCC[C@H](NC(=O)[C@H](CC(=O)O)NC(=O)[C@H](CO)NC(=O)[C@@H](NC(=O)[C@H](Cc1ccccc1)NC(=O)[C@@H](NC(=O)CNC(=O)[C@H](CCC(N)=O)NC(=O)C(C)(C)NC(=O)[C@@H](N)Cc1c[nH]cn1)[C@@H](C)O)[C@@H](C)O)C(=O)N[C@@H](CO)C(=O)N[C@@H](CCCCN)C(=O)N[C@@H](Cc1ccc(O)cc1)C(=O)N[C@@H](CC(C)C)C(=O)N[C@@H](CC(=O)O)C(=O)N[C@@H](CCCCN)C(=O)N[C@@H](Cc1c[nH]cn1)C(=O)N[C@@H](C)C(=O)N[C@@H](C)C(=O)NC(C)(C)C(=O)N[C@@H](CCC(=O)O)C(=O)N[C@@H](Cc1ccccc1)C(=O)N[C@H](C(=O)N[C@@H](CCC(N)=O)C(=O)N[C@@H](Cc1c[nH]c2ccccc12)C(=O)N[C@@H](CC(C)C)C(=O)N[C@@H](CC(C)C)C(=O)N[C@@H](CC(=O)O)C(=O)NCC(=O)NCC(=O)N1CCC[C@H]1C(=O)N[C@@H](CO)C(=O)N[C@@H](CO)C(=O)NCC(=O)N[C@@H](C)C(=O)N1CCC[C@H]1C(=O)N1CCC[C@H]1C(=O)N1CCC[C@H]1C(=O)N[C@@H](CO)C(N)=O)C(C)C)C(=O)O [compound 28] (H-H[Aib]QGTFTSDK([γGlu-Palmitoyl])SKYLDKHAA[Aib]EFVQWLLDGGPSSGAPPPS-NH2; N-terminus assumed)	2	6	1		
CCCCCCCCCCCCCCCC(=O)N[C@@H](CCC(=O)NCCCC[C@H](NC(=O)[C@H](CC(=O)O)NC(=O)[C@H](CO)NC(=O)[C@@H](NC(=O)[C@H](Cc1ccccc1)NC(=O)[C@@H](NC(=O)CNC(=O)[C@H](CCC(N)=O)NC(=O)C(C)(C)NC(=O)[C@@H](N)Cc1c[nH]cn1)[C@@H](C)O)[C@@H](C)O)C(=O)N[C@@H](CO)C(=O)N[C@@H](CCCCN)C(=O)N[C@@H](Cc1ccc(O)cc1)C(=O)N[C@@H](CC(C)C)C(=O)N[C@@H](CCC(=O)O)C(=O)N[C@@H](CCC(=O)O)C(=O)N[C@@H](CCCNC(=N)N)C(=O)N[C@@H](C)C(=O)N[C@@H](C)C(=O)N[C@@H](CCC(N)=O)C(=O)N[C@@H](CCC(=O)O)C(=O)N[C@@H](Cc1ccccc1)C(=O)N[C@H](C(=O)N[C@@H](CCC(N)=O)C(=O)N[C@@H](Cc1c[nH]c2ccccc12)C(=O)N[C@@H](CC(C)C)C(=O)N[C@@H](CC(C)C)C(=O)N[C@@H](CCC(=O)O)C(=O)NCC(=O)NCC(=O)N1CCC[C@H]1C(=O)N[C@@H](CO)C(=O)N[C@@H](CO)C(=O)NCC(=O)N[C@@H](C)C(=O)N1CCC[C@H]1C(=O)N1CCC[C@H]1C(=O)N1CCC[C@H]1C(=O)N[C@@H](CO)C(N)=O)C(C)C)C(=O)O [compound 18] (H-H[Aib]QGTFTSDK([γGlu-Palmitoyl])SKYLEERAAQEFVQWLLEGGPSSGAPPPS-NH2)	10	5	4	4	EC50 ([1]; Table 1): 8 pM; EC50 [2, 6]: 5 pM
CCCCCCCCCCCCCCCC(=O)N[C@@H](CCC(=O)NCCCC[C@H](NC(=O)[C@H](CC(=O)O)NC(=O)[C@H](CO)NC(=O)[C@@H](NC(=O)[C@H](Cc1ccccc1)NC(=O)[C@@H](NC(=O)CNC(=O)[C@H](CCC(N)=O)NC(=O)C(C)(C)NC(=O)[C@@H](N)Cc1c[nH]cn1)[C@@H](C)O)[C@@H](C)O)C(=O)N[C@@H](CO)C(=O)N[C@@H](CCCCN)C(=O)N[C@@H](Cc1ccc(O)cc1)C(=O)N[C@@H](CC(C)C)C(=O)N[C@@H](CC(=O)O)C(=O)N[C@@H](CCC(=O)O)C(=O)N[C@@H](CCCNC(=N)N)C(=O)N[C@@H](C)C(=O)N[C@@H](C)C(=O)N[C@@H](CCC(N)=O)C(=O)N[C@@H](CC(=O)O)C(=O)N[C@@H](Cc1ccccc1)C(=O)N[C@H](C(=O)N[C@@H](CCC(N)=O)C(=O)N[C@@H](Cc1c[nH]c2ccccc12)C(=O)N[C@@H](CC(C)C)C(=O)N[C@@H](CC(C)C)C(=O)N[C@@H](CC(=O)O)C(=O)N[C@H](C(=O)NCC(=O)N1CCC[C@H]1C(=O)N[C@@H](CO)C(=O)N[C@@H](CO)C(=O)NCC(=O)N[C@@H](C)C(=O)N1CCC[C@H]1C(=O)N1CCC[C@H]1C(=O)N1CCC[C@H]1C(=O)N[C@@H](CO)C(N)=O)C(C)C)C(C)C)C(=O)O [compound 63] (H-H[Aib]QGTFTSDK([γGlu-Palmitoyl])SKYLDERAAQDFVQWLLDVGPSSGAPPPS-NH2; N-terminus assumed)					EC50 [1, 7]: 3 pM; EC50 [2, 7]: 4 pM; EC50 [3, 7]: 55 pM
